Experimental data from the NIST ThermoML archive (doi:10.1021/je800150h).
± gives the expanded uncertainty stated by the source.

Test: mn = molality of the nth substance listed, in mol/kg
Details: 101 kPa, Liquid; for electrical conductivity: CyberScan CON500 conductivity meter

[Cl-].[Li+] [lithium chloride] + O
Details | electrical conductivity [S/m] | mass density [kg/m3] | viscosity [mPa·s]
293.15 K, m1 = 17.8 | – | – | 14.89 ± 0.59
298.15 K, m1 = 0.5 | 4.15 ± 0.33 | 1009.4 ± 4.1 | 0.97 ± 0.048
298.15 K, m1 = 1 | 7.29 ± 0.58 | – | 1.052 ± 0.052
298.15 K, m1 = 2 | 12 ± 0.96 | 1041.8 ± 4.2 | 1.165 ± 0.057
298.15 K, m1 = 3 | 15.2 ± 1.2 | 1061.8 ± 4.3 | 1.339 ± 0.064
298.15 K, m1 = 4.5 | 17.7 ± 1.4 | 1089.1 ± 4.5 | 1.586 ± 0.075
298.15 K, m1 = 6 | 18.7 ± 1.5 | 1114.6 ± 4.6 | 1.906 ± 0.089
298.15 K, m1 = 8 | 17.9 ± 1.4 | 1147 ± 4.8 | 2.8 ± 0.13
298.15 K, m1 = 11 | 15.1 ± 1.2 | 1190.9 ± 5 | 4.292 ± 0.19
298.15 K, m1 = 14 | 11.7 ± 0.94 | 1230.7 ± 5.2 | 6.899 ± 0.29
298.15 K, m1 = 17.8 | 8.5 ± 0.68 | 1276.4 ± 5.4 | 12.68 ± 0.51
303.15 K, m1 = 0.5 | 4.58 ± 0.37 | 1008.1 ± 4.2 | 0.866 ± 0.044
303.15 K, m1 = 1 | 8 ± 0.64 | 1018.7 ± 4.3 | 0.929 ± 0.046
303.15 K, m1 = 2 | 13.2 ± 1.1 | – | 1.047 ± 0.052
303.15 K, m1 = 3 | 16.7 ± 1.3 | 1060.3 ± 4.5 | 1.239 ± 0.06
303.15 K, m1 = 4.5 | 19.4 ± 1.6 | 1087.7 ± 4.6 | 1.422 ± 0.068
303.15 K, m1 = 6 | – | 1113.1 ± 4.8 | 1.713 ± 0.081
303.15 K, m1 = 8 | 19.7 ± 1.6 | 1145.4 ± 4.9 | 2.486 ± 0.12
303.15 K, m1 = 11 | 16.7 ± 1.3 | 1189.3 ± 5.2 | 3.812 ± 0.17
303.15 K, m1 = 14 | 13.1 ± 1 | 1228.9 ± 5.4 | 6.073 ± 0.26
303.15 K, m1 = 17.8 | 9.61 ± 0.77 | 1274.6 ± 5.6 | 11.54 ± 0.46
308.15 K, m1 = 0.5 | 4.99 ± 0.4 | 1006.6 ± 4.4 | 0.782 ± 0.04
308.15 K, m1 = 1 | 8.7 ± 0.7 | – | 0.834 ± 0.042
308.15 K, m1 = 2 | 14.4 ± 1.2 | 1038.7 ± 4.6 | 0.941 ± 0.047
308.15 K, m1 = 3 | 18.2 ± 1.5 | 1058.7 ± 4.7 | 1.083 ± 0.053
308.15 K, m1 = 4.5 | – | 1085.9 ± 4.8 | 1.28 ± 0.062
308.15 K, m1 = 6 | – | 1111.5 ± 5 | 1.532 ± 0.073
308.15 K, m1 = 8 | – | 1143.9 ± 5.1 | 2.256 ± 0.11
308.15 K, m1 = 11 | 18.3 ± 1.5 | 1187.8 ± 5.3 | 3.407 ± 0.15
308.15 K, m1 = 14 | 14.5 ± 1.2 | 1227.1 ± 5.6 | 5.332 ± 0.24
308.15 K, m1 = 17.8 | 10.9 ± 0.87 | 1272.8 ± 5.8 | 10.46 ± 0.42
313.15 K, m1 = 0.5 | 5.43 ± 0.43 | 1005.1 ± 4.6 | 0.722 ± 0.038
313.15 K, m1 = 1 | 9.45 ± 0.76 | 1015.8 ± 4.6 | 0.774 ± 0.04
313.15 K, m1 = 2 | 15.6 ± 1.3 | – | 0.866 ± 0.044
313.15 K, m1 = 3 | 19.7 ± 1.6 | 1056.9 ± 4.9 | 0.977 ± 0.049
313.15 K, m1 = 4.5 | – | 1084.4 ± 5 | 1.177 ± 0.057
313.15 K, m1 = 6 | – | 1110.1 ± 5.1 | 1.406 ± 0.067
313.15 K, m1 = 8 | – | 1142.3 ± 5.3 | 2.071 ± 0.097
313.15 K, m1 = 11 | 20 ± 1.6 | 1186.1 ± 5.5 | 3.091 ± 0.14
313.15 K, m1 = 14 | 16 ± 1.3 | 1225.3 ± 5.7 | 4.812 ± 0.22
313.15 K, m1 = 17.8 | 12.3 ± 0.98 | 1270.7 ± 6 | 9.741 ± 0.4
318.15 K, m1 = 0.5 | 5.85 ± 0.47 | 1003.5 ± 4.8 | 0.668 ± 0.035
318.15 K, m1 = 1 | 10.2 ± 0.82 | – | 0.714 ± 0.037
318.15 K, m1 = 2 | 16.8 ± 1.3 | 1035.2 ± 4.9 | 0.802 ± 0.041
318.15 K, m1 = 3 | – | 1055.5 ± 5 | 0.91 ± 0.046
318.15 K, m1 = 4.5 | – | 1083 ± 5.2 | 1.076 ± 0.053
318.15 K, m1 = 6 | – | 1108.4 ± 5.3 | 1.293 ± 0.062
318.15 K, m1 = 8 | – | 1140.7 ± 5.5 | 1.919 ± 0.09
318.15 K, m1 = 11 | – | 1184.3 ± 5.7 | 2.869 ± 0.13
318.15 K, m1 = 14 | 17.5 ± 1.4 | 1223.5 ± 5.9 | 4.412 ± 0.2
318.15 K, m1 = 17.8 | 13.6 ± 1.1 | 1268.9 ± 6.1 | 8.984 ± 0.37
323.15 K, m1 = 0.5 | 6.28 ± 0.5 | 1002.2 ± 4.9 | 0.625 ± 0.033
323.15 K, m1 = 1 | 11 ± 0.88 | 1012.5 ± 5 | 0.665 ± 0.035
323.15 K, m1 = 2 | 18.1 ± 1.4 | 1033.8 ± 5.1 | 0.747 ± 0.039
323.15 K, m1 = 3 | – | – | 0.859 ± 0.043
323.15 K, m1 = 4.5 | – | 1081.1 ± 5.4 | 1.003 ± 0.05
323.15 K, m1 = 6 | – | 1106.4 ± 5.5 | 1.194 ± 0.058
323.15 K, m1 = 8 | – | 1138.8 ± 5.7 | 1.742 ± 0.082
323.15 K, m1 = 11 | – | 1182.6 ± 5.9 | 2.69 ± 0.12
323.15 K, m1 = 14 | 19.1 ± 1.5 | 1221.8 ± 6.1 | 4.123 ± 0.19
323.15 K, m1 = 17.8 | 15.1 ± 1.2 | 1266.9 ± 6.3 | 8.265 ± 0.34
